The values that follow are results of earlier work, collected in patent US20100093849A1, “OXALIPLATIN PHARMACEUTICAL COMPOSITION WITH ALCOHOLIC SUGAR-BASED BUFFER” (priority 2007, published 2010).

The conditions of series [1]: Merck Index.

Molecules are shown by their SMILES. Several values for one entry are separate records, joined by “and”; a condition that tells them apart may be missing. Equal values may be shown once.

In the case of `O=C(O)C(=O)O` [Oxalic acid], in series [1], the “second dissociation constant, pKa” value is reported as 4.28.

For the compound `O=C1[O][Pt]2([NH][C@@H]3CCCC[C@H]3[NH]2)[O]C1=O` [Oxaliplatinum, {trans-(1R,2R)-1,2-cyclohexane-diamine}-(oxalato)platinum(II) complex], for the setting “at 37° C.”, the solubility in water result is reported as “about 8 mg/ml”. Besides, the “solubility in ether and ethanol” value (ether and ethanol) is on record as “practically insoluble”. In addition, for the setting “solvent of the same volumes of 1,2-propanediol and water (WO0115691)”, the “highest concentrations of oxaliplatinum achieved” value was 14.01 mg/mL and 14.33 mg/mL.
